Target: MMP-13CD (catalytic domain of collagenase 3) (Homo sapiens, UniProt P45452)
Experiment: biochemical
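Note: inhibition of enzymatic thiopeptolide substrate cleavage (100 µM) in pH 6.0 MES buffer with CaCl2 and DTNB, comparing hydrolysis with versus without inhibitor.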

First: COc1ccc(CNC(=O)c2ccc3[nH]c(=O)n(Cc4ccccc4)c(=O)c3c2)cc1 [3-Benzyl-2,4-dioxo-1,2,3,4-tetrahydroquinazoline-6-carboxylic acid 4-methoxybenzylamide]
Second: Cc1ccc(CNC(=O)c2ccc3[nH]c(=O)n(Cc4ccccc4)c(=O)c3c2)cc1 [3-Benzyl-2,4-dioxo-1,2,3,4-tetrahydroquinazoline-6-carboxylic acid 4-methylbenzylamide]
The IC50 of the first is 27-fold lower: 49 nM for the first, 1320 nM for the second. The first is the more potent here.

First: O=C(NCc1ccccc1)c1ccc2[nH]c(=O)n(Cc3cccs3)c(=O)c2c1 [2,4-Dioxo-3-thien-2-ylmethyl-1,2,3,4-tetrahydroquinazoline-6-carboxylic acid benzylamide]
Second: O=C(NCc1cccs1)c1ccc2[nH]c(=O)n(Cc3ccccc3)c(=O)c2c1 [3-Benzyl-2,4-dioxo-1,2,3,4-tetrahydroquinazoline-6-carboxylic acid (2-thienylmethyl)amide]
The IC50 of the first is 6.2-fold lower: 300 nM for the first, 1870 nM for the second. The first is the more potent here.

First: O=C(OCc1ccncc1)c1ccc2[nH]c(=O)n(Cc3ccccc3)c(=O)c2c1 [Synthesis Example 43, 4-Pyridylmethyl 3-benzyl-2,4-dioxo-1,2,3,4-tetrahydroquinazoline-6-carboxylate]
Second: O=C(NCc1ccncc1)c1ccc2[nH]c(=O)n(Cc3ccccc3)c(=O)c2c1 [3-Benzyl-2,4-dioxo-1,2,3,4-tetrahydroquinazoline-6-carboxylic acid (4-pyridylmethyl)amide]
The IC50 of the first is 17-fold lower: 11 nM for the first, 183 nM for the second. The first is the more potent here.

Cn1c(=O)n(Cc2ccccc2)c(=O)c2cc(C(=O)NCc3ccccc3)ccc21 [3-Benzyl-1-methyl-2,4-dioxo-1,2,3,4-tetrahydroquinazoline-6-carboxylic acid benzylamide] and Cn1c(=O)n(Cc2ccccc2)c(=O)c2cc(C(=O)NCc3ccncc3)ccc21 [3-Benzyl-1-methyl-2,4-dioxo-1,2,3,4-tetrahydroquinazoline-6-carboxylic acid (4-pyridylmethyl)amide] are within 1.5-fold of each other in IC50: 57 nM for the first, 51 nM for the second.

Going from O=C(NCc1ccc2c(c1)OCO2)c1ccc2[nH]c(=O)n(Cc3ccc4c(c3)OCO4)c(=O)c2c1 [Synthesis Example 34, 3-(Benzo[1,3]dioxol-5-ylmethyl)-2,4-dioxo-1,2,3,4-tetrahydroquinazoline-6-carboxylic acid (benzo[1,3]dioxol-5-ylmethyl)amide] to Cn1c(=O)n(Cc2ccc3c(c2)OCO3)c(=O)c2cc(C(=O)NCc3ccc4c(c3)OCO4)ccc21 [Synthesis Example 35, 3-(Benzo[1,3]dioxol-5-ylmethyl)-1-methyl-2,4-dioxo-1,2,3,4-tetrahydroquinazoline-6-carboxylic acid (benzo[1,3]dioxol-5-ylmethyl)amide], the IC50 falls from 17 nM to 3 nM (5.7-fold). The second is the more potent here.

First: Cn1c(=O)n(Cc2cccs2)c(=O)c2cc(C(=O)NCc3ccccc3)ccc21 [1-Methyl-2,4-dioxo-3-thien-2-ylmethyl-1,2,3,4-tetrahydroquinazoline-6-carboxylic acid benzylamide]
Second: COc1ccc(CNC(=O)c2ccc3c(c2)c(=O)n(Cc2ccccc2)c(=O)n3C)cc1 [Synthesis Example 26, 3-Benzyl-1-methyl-2,4-dioxo-1,2,3,4-tetrahydroquinazoline-6-carboxylic acid 4-methoxybenzylamide]
The IC50 of the first is 8-fold higher: 96 nM for the first, 12 nM for the second.

Going from Cn1c(=O)n(CCc2ccccc2)c(=O)c2cc(C(=O)NCc3ccc4c(c3)OCO4)ccc21 [1-Methyl-2,4-dioxo-3-phenethyl-1,2,3,4-tetrahydroquinazoline-6-carboxylic acid (benzo[1,3]dioxol-5-ylmethyl)amide] to Cn1c(=O)n(Cc2ccccc2)c(=O)c2cc(C(=O)NCc3ccc4c(c3)OCO4)ccc21 [Synthesis Example 24], the IC50 falls from 700 nM to 5 nM (140-fold). The second is the more potent here.

Going from O=C(NCc1ccc2c(c1)OCO2)c1ccc2[nH]c(=O)n(Cc3ccc(Cl)cc3)c(=O)c2c1 [Synthesis Example 32, 3-(4-Chlorobenzyl)-2,4-dioxo-1,2,3,4-tetrahydroquinazoline-6-carboxylic acid (benzo[1,3]dioxol-5-ylmethyl)amide] to COc1ccc(Cn2c(=O)[nH]c3ccc(C(=O)NCc4ccc5c(c4)OCO5)cc3c2=O)cc1 [Synthesis Example 27, 3-(4-Methoxybenzyl)-2,4-dioxo-1,2,3,4-tetrahydroquinazoline-6-carboxylic acid (benzo[1,3]dioxol-5-ylmethyl)amide], the IC50 falls from 28 nM to 15 nM (1.9-fold). The second is the more potent here.

First: O=C(NCc1ccc2c(c1)OCO2)c1ccc2[nH]c(=O)n(Cc3ccccc3)c(=O)c2c1 [Synthesis Example 23, 3-Benzyl-2,4-dioxo-1,2,3,4-tetrahydroquinazoline-6-carboxylic acid (benzo[1,3]dioxol-5-ylmethyl)amide]
Second: O=C(OCc1ccc2c(c1)OCO2)c1ccc2[nH]c(=O)n(Cc3ccccc3)c(=O)c2c1 [Synthesis Example 45, Benzo[1,3]dioxol-5-ylmethyl 3-benzyl-2,4-dioxo-1,2,3,4-tetrahydroquinazoline-6-carboxylate]
The IC50 of the first is 3-fold higher: 21 nM for the first, 7 nM for the second. The second is the more potent here.

First: COC(=O)c1ccc(Cn2c(=O)c3cc(C(=O)NCc4ccc(OC)cc4)ccc3n(C)c2=O)cc1 [Synthesis Example 38, 4-[6-(4-Methoxy-benzylcarbamoyl)-1-methyl-2,4-dioxo-1,4-dihydro-2H-quinazolin-3-ylmethyl]-benzoic acid methyl ester]
Second: COc1ccc(CNC(=O)c2ccc3c(c2)c(=O)n(Cc2ccc(OC)cc2)c(=O)n3C)cc1 [Synthesis Example 29, 3-(4-Methoxybenzyl)-1-methyl-2,4-dioxo-1,2,3,4-tetrahydroquinazoline-6-carboxylic acid 4-methoxybenzylamide]
The IC50 of the first is 2.5-fold lower: 4 nM for the first, 10 nM for the second. The first is the more potent here.

COc1ccc(Cn2c(=O)c3cc(C(=O)NCc4ccc5c(c4)OCO5)ccc3n(C)c2=O)cc1 [Synthesis Example 28, 3-(4-Methoxybenzyl)-1-methyl-2,4-dioxo-1,2,3,4-tetrahydroquinazoline-6-carboxylic acid (benzo[1,3]dioxol-5-ylmethyl)amide] and Cn1c(=O)n(Cc2ccc(Cl)cc2)c(=O)c2cc(C(=O)NCc3ccc4c(c3)OCO4)ccc21 [Synthesis Example 33, 3-(4-Chlorobenzyl)-1-methyl-2,4-dioxo-1,2,3,4-tetrahydroquinazoline-6-carboxylic acid (benzo[1,3]dioxol-5-ylmethyl)amide] are the same in IC50: 9 nM for the first, 9 nM for the second.

Compared with Cn1c(=O)n(Cc2ccccc2)c(=O)c2cc(C(=O)NCc3ccc4c(c3)OCO4)cnc21 [Synthesis Example 49, 3-Benzyl-1-methyl-2,4-dioxo-1,2,3,4-tetrahydro-pyrido[2,3-d]pyrimidine-6-carboxylic acid (1,3-benzodioxol-5-ylmethyl)-amide], Cn1c(=O)n(Cc2ccccc2)c(=O)c2cc(C(=O)NCc3ccc4c(c3)OCO4)ncc21 [Synthesis Example 53, 3-Benzyl-1-methyl-2,4-dioxo-1,2,3,4-tetrahydro-pyrido[3,4-d]pyrimidine-6-carboxylic acid (1,3-benzodioxol-5-ylmethyl)-amide] is 7-fold lower in IC50: 7 nM for the first, 1 nM for the second.

Going from Cn1c(=O)n(Cc2ccccc2)c(=O)c2cc(C(=O)OCc3ccc4c(c3)OCO4)ccc21 [Synthesis Example 46, Benzo[1,3]dioxol-5-ylmethyl 3-benzyl-1-methyl-2,4-dioxo-1,2,3,4-tetrahydroquinazoline-6-carboxylate] to CCn1c(=O)n(Cc2ccccc2)c(=O)c2cc(C(=O)NCc3ccc4c(c3)OCO4)ccc21 [Synthesis Example 36, 3-Benzyl-1-ethyl-2,4-dioxo-1,2,3,4-tetrahydroquinazoline-6-carboxylic acid (benzo[1,3]dioxol-5-ylmethyl)amide], the IC50 rises from 2.5 nM to 26 nM (10-fold). The first is the more potent here.

First: COC(=O)c1ccc(CNC(=O)c2ccc3c(c2)c(=O)n(Cc2ccccc2)c(=O)n3C)cc1 [Methyl 4-({[1-(3-benzyl-1-methyl-2,4-dioxo-1,2,3,4-tetrahydroquin-azolin-6-yl)methanoyl]amino}methyl)benzoate]
Second: COC(=O)c1ccc(Cn2c(=O)c3cc(C(=O)NCc4ccc(OC)cc4)ncc3n(C)c2=O)cc1 [Synthesis Example 54, Methyl 4-[6-(4-Methoxy-benzylcarbamoyl)-1-methyl-2,4-dioxo-1,4-dihydro-2H-pyrido[3,4-d]pyrimidin-3-ylmethyl]-benzoate]
The IC50 of the first is 1300-fold higher: 2250 nM for the first, 1.7 nM for the second.

Going from Cn1c(=O)n(C/C=C/c2ccccc2)c(=O)c2cc(C(=O)NCc3ccc4c(c3)OCO4)ccc21 [Synthesis Example 40, 1-Methyl-2,4-dioxo-3-((E)-3-phenylallyl)-1,2,3,4-tetrahydroquinazoline-6-carboxylic acid (benzo[1,3]dioxol-5-ylmethyl)amide] to Cn1c(=O)c2cc(C(=O)NCc3ccc4c(c3)OCO4)ccc2n(C)c1=O [1,3-Dimethyl-2,4-dioxo-1,2,3,4-tetrahydroquinazoline-6-carboxylic acid (benzo[1,3]dioxol-5-ylmethyl)amide], the IC50 rises from 22 nM to 1700 nM (77-fold).

First: O=C(NCc1ccc(Cl)cc1)c1ccc2[nH]c(=O)n(Cc3ccccc3)c(=O)c2c1 [3-Benzyl-2,4-dioxo-1,2,3,4-tetrahydroquinazoline-6-carboxylic acid 4-chlorobenzylamide]
Second: O=C(OCc1ccccc1)c1cnc2[nH]c(=O)n(Cc3ccccc3)c(=O)c2c1 [Benzyl 3-benzyl-2,4-dioxo-1,2,3,4-tetrahydropyrido[2,3-d]pyrimidine-6-carboxylate]
The IC50 of the first is 1.7-fold higher: 167 nM for the first, 96 nM for the second. The second is the more potent here.

Going from COc1ccc(CNC(=O)c2cnc3c(c2)c(=O)n(Cc2ccc(C(=O)O)cc2)c(=O)n3C)cc1 [Synthesis Example 50, 4-[6-(4-Methoxy-benzylcarbamoyl)-1-methyl-2,4-dioxo-1,4-dihydro-2H-pyrido[2,3-d]pyrimidin-3-ylmethyl]-benzoic acid] to COc1ccc(CNC(=O)c2cnc3c(c2)c(=O)n(Cc2ccc(F)cc2)c(=O)n3C)cc1 [Synthesis Example 52, 3-(4-Fluoro-benzyl)-1-methyl-2,4-dioxo-1,2,3,4-tetrahydro-pyrido[2,3-d]pyrimidine-6-carboxylic acid 4-methoxy-benzylamide], the IC50 rises from 1.6 nM to 32 nM (20-fold). The first is the more potent here.

For COc1ccc(CNC(=O)c2cnc3c(c2)c(=O)n(Cc2ccc(C#N)cc2)c(=O)n3C)cc1 [Synthesis Example 51, 3-(4-Cyano-benzyl)-1-methyl-2,4-dioxo-1,2,3,4-tetrahydro-pyrido[2,3-d]pyrimidine-6-carboxylic acid 4-methoxy-benzylamide], the IC50 was 16 nM.

Source: patent US20050004126A1 (priority 2001, published 2005)
